Measured values reported in patent publication US6965021B2, “Feedback-resistant pyruvate carboxylase gene from corynebacterium” (Archer-Daniels-Midland Company, priority 2000, dated 2005).
Like-named read-outs stand apart in the source and are kept apart here.

Tests used:
[1] = target: T1, Corynebacterium glutamicum ATCC 21253 phosphoenol pyruvate carboxylase (PEPC) (Corynebacterium glutamicum, UniProt P12880); assay: Phosphoenol pyruvate carboxylase assay (permeabilized cells), ATCC 21253; format: biochemical; conditions: no concentration stated
T1 sequence (P12880 1-919): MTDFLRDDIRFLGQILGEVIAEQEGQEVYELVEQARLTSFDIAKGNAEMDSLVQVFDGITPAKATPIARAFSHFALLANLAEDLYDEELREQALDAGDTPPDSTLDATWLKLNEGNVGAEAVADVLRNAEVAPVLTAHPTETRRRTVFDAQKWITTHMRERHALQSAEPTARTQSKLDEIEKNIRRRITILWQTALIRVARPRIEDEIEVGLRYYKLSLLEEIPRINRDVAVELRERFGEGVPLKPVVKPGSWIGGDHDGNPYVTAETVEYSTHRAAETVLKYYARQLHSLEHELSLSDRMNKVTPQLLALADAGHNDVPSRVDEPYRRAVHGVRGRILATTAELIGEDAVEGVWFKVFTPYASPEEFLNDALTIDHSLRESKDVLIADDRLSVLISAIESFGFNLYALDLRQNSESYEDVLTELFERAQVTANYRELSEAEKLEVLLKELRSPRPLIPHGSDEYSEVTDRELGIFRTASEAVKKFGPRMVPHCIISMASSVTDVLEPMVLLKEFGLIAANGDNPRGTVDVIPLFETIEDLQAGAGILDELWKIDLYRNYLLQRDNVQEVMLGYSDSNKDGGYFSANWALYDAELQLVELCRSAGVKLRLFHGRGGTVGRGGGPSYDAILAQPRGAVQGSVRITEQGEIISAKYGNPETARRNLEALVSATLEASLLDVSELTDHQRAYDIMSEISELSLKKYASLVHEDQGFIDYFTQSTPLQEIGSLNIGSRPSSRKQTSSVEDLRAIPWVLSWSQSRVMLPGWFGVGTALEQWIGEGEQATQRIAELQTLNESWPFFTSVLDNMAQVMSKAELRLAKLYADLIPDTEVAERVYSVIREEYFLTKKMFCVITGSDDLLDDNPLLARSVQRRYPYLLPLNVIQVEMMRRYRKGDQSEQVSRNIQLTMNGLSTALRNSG
Description: (§1) Pyruvate carboxylate and phosphoenol pyruvate carboxylate assays were performed with permeabilized cells prepared by the following method. Log phase cells were harvested by centrifugation for 10 min at 5000×g at 4° C. and washed with 20 ml of the ice-cold washing buffer (50 mM Tris/HCl [pH 6.3] containing 50 mM NaCl). The cell pellet was resuspended in an ice-cold Hepes buffer (100 mM Hepes [pH 7.5] containing 20% Glycerol) to reach a final concentration of 25 g dry cell weight/liter. Resuspended cells were permeabilized by adding 30 μl of a 10% Hexadecyltrimethyl-ammonium bromide (CTAB) (w/v) solution to 1 ml of cells to give a final concentration of 0.3% (CTAB)(v/v).
For determination of phosphoenol pyruvate carboxylase activity, the assay mixture contained 10 mM phosphoenol pyruvate, 14 mM KHCO3, 4 mM MgCl2, 50 μmole acetyl-CoA, 0.3 mg bovine serum albumin, 0.055 U citrate synthase and 50 mM sodium phosphate buffer ([pH 7.5] containing 0.1 mg 5,5′-Dithio-bis(2-nitrobenzoic acid) (DTNB)) in a final volume of 1 ml. The reaction was carried out in the same conditions described for the pyruvate carboxylase assay.
Aspartate inhibits phosphoenol pyruvate carboxylase (PEPC) activity. To determine the effect of aspartate on the activity of pyruvate carboxylase, aspartate was added at different concentrations in the spectrophotometer cuvette and enzyme activities were measured. […]

[2] = target: Corynebacterium glutamicum NRRL B-11474 (BF100) pyruvate carboxylase, feedback-resistant variant (M1V, E153D, A182S, A206S, H227R, A455G, D1120E), SEQ ID NO:2 (Corynebacterium glutamicum, UniProt H7C7K2, A182S/A206S/A455G/D1120E/E153D/H227R/M1V)
Description: as §1
The reaction was started at 30° C. with the addition of 10 μl of the permeabilized cell suspension, and the formation of DTNB-thiophenolate was followed over time at 412 nm. Relevant standards and controls were carried out in the same manner.
To account for the intrinsic loss of OAA during the experiment, a continuous assay was carried out by coupling the two-reaction assay to a one-reaction assay in presence of an excess of citrate synthase. The amount of permeabilized cells added in the assay was optimized to obtain a detectable activity, with the lowest possible background absorbency due to the presence of cells.
Pyruvate carboxylase activity was determined as a function of various concentrations of its substrates: pyruvate, bicarbonate and ATP (FIG. 3). Based on the data generated, the affinity constants of pyruvate carboxylase for its substrates were determined (Table 2).
To determine the effect of aspartate on the activity of pyruvate carboxylase, aspartate was added at different concentrations in the spectrophotometer cuvette and enzyme activities were measured. As a comparison, the same experiment was carried out with PEPC in ATCC 21253 (FIG. 5).
Pyruvate carboxylase activity was measured in the presence of different concentrations of acetyl-CoA (FIG. 6). […] The effect of acetyl-CoA on citrate synthase itself was studied also.

Q: How did the “inhibition of PEPC by aspartate” value [1] turn out when `N[C@@H](CC(=O)O)C(=O)O` [aspartate, aspartic acid] was run?
A: Its value is “strongly inhibited”.

Q: What about the “effect of aspartate on pyruvate carboxylase activity” value ([2]; 0-30 mM aspartate) of the same compound?
A: Its value is “activated”.

Q: And the “effect of aspartate on pyruvate carboxylase activity” value ([2]; 30-100 mM aspartate)?
A: The value was “inhibited”.
